US20220323406A1, “METHODS AND COMPOSITIONS FOR DIFFERENTIATING STEM CELLS” (Massachusetts Institute of Technology, priority 2019, published 2022)
Where a name gives a salt, the structure may show the parent alone.

How the values were obtained:
Settings in all cases: primary screen
[1] = tested on: ENR+CD organoids (ISC to Paneth cell differentiation); assay: Primary screen: basal (non-stimulated) lysozyme secretion LYZ.NS, 2.5-D 384-well ENR+CD organoid differentiation; type: cell-based, mouse
Excerpt: (§1) High-throughput screening.

[2] = tested on: ENR+CD organoids (ISC to Paneth cell differentiation); assay: Primary screen: CCh-stimulated lysozyme secretion LYZ.S, 2.5-D 384-well ENR+CD organoid differentiation; type: cell-based, mouse
Excerpt: as §1

ENR+CD organoids = assay: Primary screen: ATP (CellTiter-Glo 3D, CTG) cell number/viability, 2.5-D 384-well ENR+CD organoids;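 further: compounds given at plating and again on day 3 over a 6-day differentiation from ENR+CV stem-cell-enriched precursors, ATP measured on day 6, plate median as control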
[3] = 1st dose row of the treatment (0.08 uM by row order; dose not reprinted)
[4] = 2nd dose row of the treatment (0.40 uM by row order; dose not reprinted)
[5] = 3rd dose row of the treatment (2.00 uM by row order; dose not reprinted)
[6] = 4th dose row of the treatment (10.00 uM by row order; dose not reprinted)

SMILES | Dose.FC.LYZ.NS ([1]; dose 0.08 uM) | Z.LYZ.NS (standard z score) ([1]; dose 0.08 uM) | Dose.FC.LYZ.NS ([1]; dose 0.40 uM) | Z.LYZ.NS (standard z score) ([1]; dose 0.40 uM) | Dose.FC.LYZ.NS ([1]; dose 2.00 uM) | Z.LYZ.NS (standard z score) ([1]; dose 2.00 uM) | Dose.FC.LYZ.NS ([1]; dose 10.00 uM) | Z.LYZ.NS (standard z score) ([1]; dose 10.00 uM) | Dose.FC.LYZ.S ([2]; dose 0.08 uM) | Dose.FC.LYZ.S ([2]; dose 0.40 uM) | Dose.FC.LYZ.S ([2]; dose 2.00 uM) | Dose.FC.LYZ.S ([2]; dose 10.00 uM) | Dose.FC.CTG (ENR+CD organoids; dose 0.08 uM) | Z.CTG (standard z score) (ENR+CD organoids; dose 0.08 uM) | Dose.FC.CTG (ENR+CD organoids; dose 0.40 uM) | Z.CTG (standard z score) (ENR+CD organoids; dose 0.40 uM) | Dose.FC.CTG (ENR+CD organoids; dose 2.00 uM) | Z.CTG (standard z score) (ENR+CD organoids; dose 2.00 uM) | Dose.FC.CTG (ENR+CD organoids; dose 10.00 uM) | Z.CTG (standard z score) (ENR+CD organoids; dose 10.00 uM) | further results
CC1(C)CCC(CN2CCN(c3ccc(C(=O)NS(=O)(=O)c4ccc(NCC5CCOCC5)c([N+](=O)[O-])c4)c(Oc4cnc5[nH]ccc5c4)c3)CC2)=C(c2ccc(Cl)cc2)C1 [ABT-199 (GDC-0199)] | −0.002 log2 fold change | −0.013 | −0.029 log2 fold change | −0.251 | −0.016 log2 fold change | −0.136 | −0.169 log2 fold change | −1.471 | −0.044 log2 fold change | 0.076 log2 fold change | −0.063 log2 fold change | −0.292 log2 fold change | 0.019 log2 fold change | 0.045 | 0.038 log2 fold change | 0.090 | −0.278 log2 fold change | −0.665 | −0.519 log2 fold change | −1.240 | SSMD.LYZ.NS_Rep (strictly standardized mean difference) [1, 3]: −0.009; SSMD.LYZ.NS_Rep (strictly standardized mean difference) [1, 4]: −0.192; SSMD.LYZ.NS_Rep (strictly standardized mean difference) [1, 5]: −0.116; SSMD.LYZ.NS_Rep (strictly standardized mean difference) [1, 6]: −0.810; SSMD.LYZ.S_Rep (strictly standardized mean difference) [2, 3]: −0.260; Z.LYZ.S (standard z score) [2, 3]: −0.285; SSMD.LYZ.S_Rep (strictly standardized mean difference) [2, 4]: 0.443; Z.LYZ.S (standard z score) [2, 4]: 0.494; SSMD.LYZ.S_Rep (strictly standardized mean difference) [2, 5]: −0.368; Z.LYZ.S (standard z score) [2, 5]: −0.404; SSMD.LYZ.S_Rep (strictly standardized mean difference) [2, 6]: −1.131; Z.LYZ.S (standard z score) [2, 6]: −1.890; SSMD.CTG.Rep (strictly standardized mean difference) (ENR+CD organoids; [3]): 0.051; SSMD.CTG.Rep (strictly standardized mean difference) (ENR+CD organoids; [4]): 0.111; SSMD.CTG.Rep (strictly standardized mean difference) (ENR+CD organoids; [5]): −0.377; SSMD.CTG.Rep (strictly standardized mean difference) (ENR+CD organoids; [6]): −1.402
CC1(C)CCC(c2ccc(Cl)cc2)=C(CN2CCN(c3ccc(C(=O)NS(=O)(=O)c4ccc(N[C@H](CCN5CCOCC5)CSc5ccccc5)c(S(=O)(=O)C(F)(F)F)c4)cc3)CC2)C1 [ABT-263 (Navitoclax)] | 0.012 log2 fold change | 0.104 | 0.007 log2 fold change | 0.062 | −0.143 log2 fold change | −1.248 | −0.259 log2 fold change | −2.259 | −0.010 log2 fold change | −0.020 log2 fold change | −0.205 log2 fold change | −0.400 log2 fold change | −0.212 log2 fold change | −0.507 | −0.264 log2 fold change | −0.631 | −0.368 log2 fold change | −0.878 | −0.962 log2 fold change | −2.298 | –
CCN(CC)C(=O)c1ccc(C2=CC3(CCNCC3)Oc3cccc(O)c32)cc1 [ADL5859 HCl] | 0.053 log2 fold change | 0.458 | 0.019 log2 fold change | 0.163 | 0.066 log2 fold change | 0.571 | −0.056 log2 fold change | −0.488 | 0.079 log2 fold change | 0.104 log2 fold change | 0.070 log2 fold change | −0.040 log2 fold change | 0.270 log2 fold change | – | 0.163 log2 fold change | – | 0.291 log2 fold change | – | 0.194 log2 fold change | – | –
O=C(c1ccc(F)cc1)N1CCC[C@H](c2nc(-c3ccc(F)cc3)no2)C1 [ADX-47273] | 0.269 log2 fold change | 2.346 | 0.053 log2 fold change | 0.457 | −0.033 log2 fold change | −0.286 | −0.036 log2 fold change | −0.311 | 0.147 log2 fold change | 0.147 log2 fold change | −0.039 log2 fold change | −0.070 log2 fold change | 0.115 log2 fold change | 0.274 | −0.034 log2 fold change | −0.082 | −0.210 log2 fold change | −0.501 | −0.039 log2 fold change | −0.094 | –
